SMILES strings stand for the structures.

For the experiment, the target named is T1, SIRT1 (Homo sapiens, UniProt Q96EB6).
T1 sequence (Q96EB6 1-747): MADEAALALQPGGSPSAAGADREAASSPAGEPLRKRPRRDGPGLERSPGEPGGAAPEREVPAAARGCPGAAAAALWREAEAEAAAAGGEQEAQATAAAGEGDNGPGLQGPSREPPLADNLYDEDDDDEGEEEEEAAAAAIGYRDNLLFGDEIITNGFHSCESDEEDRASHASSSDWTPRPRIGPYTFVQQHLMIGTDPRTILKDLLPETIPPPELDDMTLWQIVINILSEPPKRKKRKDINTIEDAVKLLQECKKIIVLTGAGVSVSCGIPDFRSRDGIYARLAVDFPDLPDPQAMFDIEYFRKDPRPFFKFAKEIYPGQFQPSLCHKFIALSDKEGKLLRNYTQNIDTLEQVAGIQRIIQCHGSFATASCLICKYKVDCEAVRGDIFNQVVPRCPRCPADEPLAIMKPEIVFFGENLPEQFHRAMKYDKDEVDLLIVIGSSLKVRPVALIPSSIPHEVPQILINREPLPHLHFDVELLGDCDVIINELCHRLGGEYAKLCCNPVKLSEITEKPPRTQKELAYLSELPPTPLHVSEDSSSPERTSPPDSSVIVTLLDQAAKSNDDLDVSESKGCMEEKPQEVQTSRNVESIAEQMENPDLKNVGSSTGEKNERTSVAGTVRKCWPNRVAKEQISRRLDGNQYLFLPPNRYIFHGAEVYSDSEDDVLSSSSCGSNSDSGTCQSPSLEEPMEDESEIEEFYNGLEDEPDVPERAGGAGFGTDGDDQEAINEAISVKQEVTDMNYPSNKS
The experiment can be described thus: Mass spectrometry based SIRT1 deacetylation assay (activation). Format: biochemical. The note with it: 10 nM SIRT1, 0.5 μM peptide substrate, 120 μM βNAD+, 25 min at 25° C. The essentials:
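Recombinant N-His-tagged SIRT1 (E. coli BL21(DE3)), 10 nM, incubated 25 min at 25 °C with 0.5 μM biotin/5TMR-labelled acetyl-p53-derived 20-mer peptide and 120 μM βNAD+ in Tris-acetate pH 8 buffer with DTT and BSA. Formic acid stop; MS quantifies acetylated vs deacetylated peptide. EC1.5 = concentration giving 150% activation versus DMSO.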
In the case of `O=C(Nc1ccncn1)c1cccc2ccc(-c3cccc(OC4CCNCC4)c3)nc12` [Compound 133], the “% Fold Act. (percent maximum fold activation)” value is listed as “A (Fold activation >200%)” and the “EC1.5 (concentration of test compound that results in 150% activation of SIRT1)” value is “A (EC1.5<1.0 uM)”.

With `O=C(Nc1ccccn1)c1cccc2ccc(-c3cccc(OC(F)(F)F)c3)nc12` [Compound 24], the “% Fold Act. (percent maximum fold activation)” value is “A (Fold activation >200%)” and the “EC1.5 (concentration of test compound that results in 150% activation of SIRT1)” value was “A (EC1.5<1.0 uM)”.

`O=C(Nc1cccc2ccc(-c3cccc(OC(F)(F)F)c3)nc12)c1ccccc1` [Compound 19]: the “EC1.5 (concentration of test compound that results in 150% activation of SIRT1)” value is “C (EC1.5>25 uM)”.

In the case of `O=C(Nc1cccc2ccc(-c3cccc(OC(F)(F)F)c3)nc12)c1cnc2ccccc2n1` [Compound 23], the “EC1.5 (concentration of test compound that results in 150% activation of SIRT1)” value is reported as “C (EC1.5>25 uM)”.

As to `Cc1cncc(-c2ccc3cccc(C(=O)Nc4nccs4)c3n2)c1` [Compound 242], the “EC1.5 (concentration of test compound that results in 150% activation of SIRT1)” value is “C (EC1.5>25 uM)”.

In the case of `Cc1nnc(NC(=O)c2cccc3ccc(-c4cccc(N5CCOCC5)c4)nc23)o1` [Compound 276], the “% Fold Act. (percent maximum fold activation)” value is on record as “A (Fold activation >200%)” and the “EC1.5 (concentration of test compound that results in 150% activation of SIRT1)” value was “A (EC1.5<1.0 uM)”.

Turning to `Cc1noc(NC(=O)c2cccc3ccc(-c4cccc(C(F)(F)F)c4)nc23)c1C` [Compound 82], the “% Fold Act. (percent maximum fold activation)” value was “A (Fold activation >200%)” and the “EC1.5 (concentration of test compound that results in 150% activation of SIRT1)” value is “B (EC1.5 1-25 uM)”.

Consider `O=C(Nc1cccnc1)c1cccc2ccc(-c3cccc(N4CCOCC4)c3)nc12` [Compound 110], for which the “% Fold Act. (percent maximum fold activation)” value was “A (Fold activation >200%)” and the “EC1.5 (concentration of test compound that results in 150% activation of SIRT1)” value was “A (EC1.5<1.0 uM)”.

As to `O=C(Nc1cccc(OC[C@@H](O)CO)c1)c1cccc2ccc(-c3cccc(C(F)(F)F)c3)nc12` [Compound 207], the “% Fold Act. (percent maximum fold activation)” value is “A (Fold activation >200%)” and the “EC1.5 (concentration of test compound that results in 150% activation of SIRT1)” value is on record as “A (EC1.5<1.0 uM)”.

`CCOC(=O)c1csc(NC(=O)c2cccc3ccc(-c4cccc(C(F)(F)F)c4)nc23)n1` [Compound 91]: the “% Fold Act. (percent maximum fold activation)” value was “A (Fold activation >200%)” and the “EC1.5 (concentration of test compound that results in 150% activation of SIRT1)” value is “A (EC1.5<1.0 uM)”.

For `O=C(O)c1ccc(NC(=O)c2cccc3ccc(-c4cccc(C(F)(F)F)c4)nc23)o1` [Compound 90], the “% Fold Act. (percent maximum fold activation)” value is “B (Fold Activation <200%)” and the “EC1.5 (concentration of test compound that results in 150% activation of SIRT1)” value is “B (EC1.5 1-25 uM)”.

For `O=C(Nc1nccs1)Nc1cccc2ccc(-c3cccc(OC(F)(F)F)c3)nc12` [Compound 45], the “% Fold Act. (percent maximum fold activation)” value was “B (Fold Activation <200%)” and the “EC1.5 (concentration of test compound that results in 150% activation of SIRT1)” value is listed as “A (EC1.5<1.0 uM)”.

Consider `O=C(Nc1nccs1)c1cccc2ccc(-c3ccnc(C(F)F)c3)nc12` [Compound 304], for which the “% Fold Act. (percent maximum fold activation)” value was “A (Fold activation >200%)” and the “EC1.5 (concentration of test compound that results in 150% activation of SIRT1)” value is “A (EC1.5<1.0 uM)”.

Take `Cc1cc(-c2ccc3cccc(C(=O)Nc4ccncn4)c3n2)no1` [Compound 70]: the “EC1.5 (concentration of test compound that results in 150% activation of SIRT1)” value was “C (EC1.5>25 uM)”.

Turning to `O=C(Nc1cccc2ccc(-c3ccccc3OC(F)(F)F)nc12)c1cscn1` [Compound 92], the “% Fold Act. (percent maximum fold activation)” value is given as “A (Fold activation >200%)” and the “EC1.5 (concentration of test compound that results in 150% activation of SIRT1)” value is “A (EC1.5<1.0 uM)”.

In the case of `O=C(Nc1nc2ccccc2s1)c1cccc2ccc(-c3cccnc3)nc12` [Compound 233], the “% Fold Act. (percent maximum fold activation)” value was “B (Fold Activation <200%)” and the “EC1.5 (concentration of test compound that results in 150% activation of SIRT1)” value is given as “B (EC1.5 1-25 uM)”.

`Cc1cc(-c2ccc3cccc(C(=O)Nc4nccs4)c3n2)no1` [Compound 69]: the “EC1.5 (concentration of test compound that results in 150% activation of SIRT1)” value is “C (EC1.5>25 uM)”.

In the case of `O=C(Nc1ccccn1)c1cccc2cnc(-c3cccc(C(F)(F)F)c3)nc12` [Compound 283], the “EC1.5 (concentration of test compound that results in 150% activation of SIRT1)” value was “C (EC1.5>25 uM)”.

Turning to `CN1CCN(Cc2cccc(C(=O)Nc3cccc4ccc(-c5cccc(C(F)(F)F)c5)nc34)c2)CC1` [Compound 216], the “% Fold Act. (percent maximum fold activation)” value is “A (Fold activation >200%)” and the “EC1.5 (concentration of test compound that results in 150% activation of SIRT1)” value was “A (EC1.5<1.0 uM)”.

With `O=C(Nc1cccnc1)c1cccc2ncc(-c3cccc(C(F)(F)F)c3)nc12` [Compound 124], the “% Fold Act. (percent maximum fold activation)” value is reported as “B (Fold Activation <200%)” and the “EC1.5 (concentration of test compound that results in 150% activation of SIRT1)” value is recorded as “A (EC1.5<1.0 uM)”.

As to `O=C(Nc1cccc2ccc(-c3cccnc3)nc12)c1cccc(OCCN2CCOCC2)c1` [Compound 317], the “% Fold Act. (percent maximum fold activation)” value is given as “A (Fold activation >200%)” and the “EC1.5 (concentration of test compound that results in 150% activation of SIRT1)” value is recorded as “B (EC1.5 1-25 uM)”.

For `O=C(Nc1cccc2ccc(-c3cc(F)cc(C(F)(F)F)c3)nc12)c1cscn1` [Compound 169], the “EC1.5 (concentration of test compound that results in 150% activation of SIRT1)” value is recorded as “C (EC1.5>25 uM)”.

Regarding `O=C(Nc1cccc2ccc(-c3cncc(F)c3)nc12)c1cscn1` [Compound 199], the “EC1.5 (concentration of test compound that results in 150% activation of SIRT1)” value was “C (EC1.5>25 uM)”.

`FC(F)(F)c1cccc(-c2ccc3cccc(NCc4nccs4)c3n2)c1` [Compound 137]: the “EC1.5 (concentration of test compound that results in 150% activation of SIRT1)” value is “C (EC1.5>25 uM)”.

For the compound `O=C(Nc1nccs1)c1cc(F)cc2ccc(-c3cccc(C(F)(F)F)c3)nc12` [Compound 62], the “EC1.5 (concentration of test compound that results in 150% activation of SIRT1)” value is listed as “C (EC1.5>25 uM)”.

As for `Cc1cnc(NC(=O)c2cccc3ccc(-c4cccc(OC5CCNCC5)c4)nc23)s1` [Compound 134], the “% Fold Act. (percent maximum fold activation)” value is “A (Fold activation >200%)” and the “EC1.5 (concentration of test compound that results in 150% activation of SIRT1)” value is “A (EC1.5<1.0 uM)”.

Consider `Cn1cnc(C(=O)Nc2cccc3ccc(-c4cccc(C(F)(F)F)c4)nc23)c1` [Compound 221], for which the “% Fold Act. (percent maximum fold activation)” value was “A (Fold activation >200%)” and the “EC1.5 (concentration of test compound that results in 150% activation of SIRT1)” value is “A (EC1.5<1.0 uM)”.

Take `O=C(Nc1ncc(CN2CCCC2)s1)c1cccc2ccc(-c3cccc(C(F)F)c3)nc12` [Compound 262]: the “% Fold Act. (percent maximum fold activation)” value was “A (Fold activation >200%)” and the “EC1.5 (concentration of test compound that results in 150% activation of SIRT1)” value is on record as “B (EC1.5 1-25 uM)”.

In the case of `O=C(Nc1cccnc1)c1ccc(F)c2ccc(-c3cccc(C(F)(F)F)c3)nc12` [Compound 67], the “% Fold Act. (percent maximum fold activation)” value is on record as “A (Fold activation >200%)” and the “EC1.5 (concentration of test compound that results in 150% activation of SIRT1)” value is reported as “A (EC1.5<1.0 uM)”.

For `O=C(Nc1ccccn1)Nc1cccc2ccc(-c3cccc(OC(F)(F)F)c3)nc12` [Compound 46], the “% Fold Act. (percent maximum fold activation)” value is reported as “B (Fold Activation <200%)” and the “EC1.5 (concentration of test compound that results in 150% activation of SIRT1)” value is “A (EC1.5<1.0 uM)”.

`O=C(Nc1nccs1)c1cccc2ccc(-c3ccnc(N4CCOCC4)c3)nc12` [Compound 209]: the “% Fold Act. (percent maximum fold activation)” value was “B (Fold Activation <200%)” and the “EC1.5 (concentration of test compound that results in 150% activation of SIRT1)” value is reported as “A (EC1.5<1.0 uM)”.

Take `O=C(Nc1cccc2ccc(-c3cccc(C(F)(F)F)c3)nc12)c1cccs1` [Compound 204]: the “% Fold Act. (percent maximum fold activation)” value is on record as “B (Fold Activation <200%)” and the “EC1.5 (concentration of test compound that results in 150% activation of SIRT1)” value was “B (EC1.5 1-25 uM)”.

These data come from patent publication US8685970B2, “Quinolines and related analogs as sirtuin modulators” (GlaxoSmithKline, LLC, priority 2008, dated 2014).
